The assay deals with HepG2 13C-glycerol triglyceride synthesis, LC-MS, 24 h. In words: inhibition of triglyceride synthesis rate, late-stage follow-up, mechanism study for Trib1 inducer project, cell-based, HepG2, LC-MS, 13C-glycerol labeling, cherry-pick (AID 1053150). Conditions: stronger effect = higher value; dose or concentration not given here.

Regarding `CN1C(=O)c2cc(NC(=O)c3ccc(C(F)(F)F)cc3)ccc2OC[C@@H]2O[C@H](CC(=O)NC3Cc4ccccc4C3)CC[C@@H]21`, the TAG formation rate inhibition was 2%.
